Assay results reported in patent US20220220152A1, “BIVALENT ANTAGONISTS OF INHIBITORS OF APOPTOSIS PROTEINS” (Hepagene Therapeutics (HK) Limited, priority 2019, published 2022).

Columns and labels:
cIAP1-BIR3 = target: T1, cIAP1-BIR3 (Homo sapiens, UniProt Q13490); assay: cIAP1-BIR3 fluorescence polarization binding assay; details: FP, probe AbuRPFK-5FAM (SM5F) 5 nM, cIAP1-BIR3 15 nM, 60 min at 25° C.
T1 construct: cIAP1-BIR3; purchased Reaction Biology APT-11-370
Procedure, shortened: (§1)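 Fluorescence polarization competition using 5-carboxyfluorescein-labelled peptide probe AbuRPFK-5FAM; protein and compound preincubated 15 min, probe added, then 60 min at 25° C.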

XIAP-BIR3 = target: T2, XIAP-BIR3 (Homo sapiens, UniProt P98170); assay: XIAP-BIR3 fluorescence polarization binding assay; details: FP, probe AbuRPFK-5FAM (SM5F) 5 nM, XIAP-BIR3 40 nM, 60 min at 25° C.
T2 construct: XIAP-BIR3; purchased Reaction Biology APT-11-374
T2 sequence (P98170 241-356 limits assumed): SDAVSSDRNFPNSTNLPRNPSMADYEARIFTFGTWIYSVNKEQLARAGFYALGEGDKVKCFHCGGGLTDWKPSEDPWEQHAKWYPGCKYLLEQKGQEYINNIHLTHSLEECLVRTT
Procedure, shortened: as §1

cIAP2-BIR3 = target: T3, cIAP2-BIR3 (Homo sapiens, UniProt Q13489); assay: cIAP2-BIR3 fluorescence polarization binding assay; details: FP, probe AbuRPFK-5FAM (SM5F) 5 nM, cIAP2-BIR3 80 nM, 60 min at 25° C.
T3 construct: cIAP2-BIR3; purchased Reaction Biology APT-11-372
T3 sequence (Q13489 238-349 limits assumed): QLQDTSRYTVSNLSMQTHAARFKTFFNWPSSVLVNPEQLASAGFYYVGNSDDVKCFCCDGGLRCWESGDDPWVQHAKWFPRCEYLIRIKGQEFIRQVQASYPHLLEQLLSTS
Procedure, shortened: as §1

T1 sequence (Q13490 253-363 limits assumed): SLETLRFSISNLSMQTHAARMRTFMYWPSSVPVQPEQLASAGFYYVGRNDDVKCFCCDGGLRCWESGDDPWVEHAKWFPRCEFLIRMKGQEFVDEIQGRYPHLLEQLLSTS

| SMILES | IC50 (cIAP1-BIR3) | IC50 (XIAP-BIR3) | IC50 (cIAP2-BIR3) |
| --- | --- | --- | --- |
| CN[C@@H](C)C(=O)N[C@H](C(=O)N1CCC[C@H]1C(=O)N[C@@H]1CCCc2c(OCCOCCOc3cccc4c3CCC[C@H]4NC(=O)[C@@H]3CCCN3C(=O)[C@@H](NC(=O)[C@H](C)NC)C(C)C)cccc21)C(C)C [Compound II-A, (2S)-1-[(2S)-3-Methyl-2-[(2S)-2-(methylamino)propanamido]butanoyl]-N-[(1R)-5-[2-(2-{[(5R)-5-[(2S)-1-[(2S)-3-methyl-2-[(2S)-2-(methylamino)propanamido]butanoyl]pyrrolidine-2-amido]-5,6,7,8-tetrahydronaphthalen-1-yl]oxy}ethoxy)ethoxy]-1,2,3,4-tetrahydronaphthalen-1-yl]pyrrolidine-2-carboxamide] | 1 to 10 nM | 100 to 1000 nM | 1 to 10 nM |
| CN[C@@H](C)C(=O)N[C@H](C(=O)N1CCC[C@H]1C(=O)N[C@@H]1CCCc2c(OCCOCCOc3cccc4c3CCC[C@H]4NC(=O)[C@@H]3CCCN3C(=O)[C@@H](NC(=O)[C@H](C)NC)C3CCOCC3)cccc21)C1CCOCC1 [Compound II-B, (2S)-1-[(2S)-2-[(2S)-2-(Methylamino)propanamido]-2-(oxan-4-yl)acetyl]-N-[(1R)-5-[2-(2-{[(5R)-5-[(2S)-1-[(2S)-2-[(2S)-2-(methylamino)propanamido]-2-(oxan-4-yl)acetyl]pyrrolidine-2-amido]-5,6,7,8-tetrahydronaphthalen-1-yl]oxy}ethoxy)ethoxy]-1,2,3,4-tetrahydronaphthalen-1-yl]pyrrolidine-2-carboxamide] | 1 to 10 nM | 10 to 100 nM | 10 to 100 nM |
| CN[C@@H](C)C(=O)N[C@H](C(=O)N1CCC[C@H]1C(=O)N[C@@H]1CCCc2c(OCCc3ccc(CCOc4cccc5c4CCC[C@H]5NC(=O)[C@@H]4CCCN4C(=O)[C@@H](NC(=O)[C@H](C)NC)C4CCCCC4)cc3)cccc21)C1CCCCC1 [Compound IV, (2S)-1-[(2S)-2-Cyclohexyl-2-[(2S)-2-(methylamino)propanamido]acetyl]-N-[(1R)-5-[2-[4-(2-[[(5R)-5-[(2S)-1-[(2S)-2-cyclohexyl-2-[(2S)-2-(methylamino)propanamido]acetyl]pyrrolidine-2-amido]-5,6,7,8-tetrahydronaphthalen-1-yl]oxy]ethyl)phenyl]ethoxy]-1,2,3,4-tetrahydronaphthalen-1-yl]pyrrolidine-2-carboxamide] | 10 to 100 nM | 100 to 1000 nM | 10 to 100 nM |
| CN[C@@H](C)C(=O)N[C@H](C(=O)N1CCC[C@H]1C(=O)N[C@@H]1CCOc2c(-c3cccc4c3OCC[C@H]4NC(=O)[C@@H]3CCCN3C(=O)[C@@H](NC(=O)[C@H](C)NC)C3CCCC3)cccc21)C1CCCC1 [Compound V-F, (2S)-1-[(2S)-2-cyclopentyl-2-[(2S)-2-(methylamino)propanamido]acetyl]-N-[(4R)-8-[(4R)-4-[(2S)-1-[(2S)-2-cyclopentyl-2-[(2S)-2-(methylamino)propanamido]acetyl]pyrrolidine-2-amido]-3,4-dihydro-2H-1-benzopyran-8-yl]-3,4-dihydro-2H-1-benzopyran-4-yl]pyrrolidine-2-carboxamide] | 1 to 10 nM | 10 to 100 nM | 10 to 100 nM |
| CN[C@@H](C)C(=O)N[C@H](C(=O)N1C[C@@H](O)C[C@H]1C(=O)N[C@@H]1CCCc2c(OC/C=C/COc3cccc4c3CCC[C@H]4NC(=O)[C@@H]3C[C@H](O)CN3C(=O)[C@@H](NC(=O)[C@H](C)NC)C3CCCCC3)cccc21)C1CCCCC1 [Compound I-E, (2S,4S)-1-[(2S)-2-cyclohexyl-2-[(2S)-2-(methylamino)propanamido]acetyl]-N-[(1R)-5-[[(2E)-4-[[(5R)-5-[(2S,4S)-1-[(2S)-2-cyclohexyl-2-[(2S)-2-(methylamino)propanamido]acetyl]-4-hydroxypyrrolidine-2-amido]-5,6,7,8-tetrahydronaphthalen-1-yl]oxy]but-2-en-1-yl]oxy]-1,2,3,4-tetrahydronaphthalen-1-yl]-4-hydroxypyrrolidine-2-carboxamide] | 1 to 10 nM | 10 to 100 nM | 10 to 100 nM |
| CN[C@@H](C)C(=O)N[C@H](C(=O)N1CCC[C@H]1C(=O)N[C@@H]1CCCc2c(-c3ccc(-c4cccc5c4CCC[C@H]5NC(=O)[C@@H]4CCCN4C(=O)[C@@H](NC(=O)[C@H](C)NC)C4CCCCC4)cc3)cccc21)C1CCCCC1 [Compound III, (2S)-1-[(2S)-2-Cyclohexyl-2-[(2S)-2-(methylamino)propanamido]acetyl]-N-[(1R)-5-[4-[(5R)-5-[(2S)-1-[(2S)-2-cyclohexyl-2-[(2S)-2-(methylamino)propanamido]acetyl]pyrrolidine-2-amido]-5,6,7,8-tetrahydronaphthalen-1-yl]phenyl]-1,2,3,4-tetrahydronaphthalen-1-yl]pyrrolidine-2-carboxamide] | 1 to 10 nM | 10 to 100 nM | 10 to 100 nM |
| CN[C@@H](C)C(=O)N[C@H](C(=O)N1CCC[C@H]1C(=O)N[C@@H]1CCCc2c(-c3cccc4c3CCC[C@H]4NC(=O)[C@@H]3CCCN3C(=O)[C@@H](NC(=O)[C@H](C)NC)C3CCOCC3)cccc21)C1CCOCC1 [Compound V-K, (S)-1-((S)-2-((S)-2-(methylamino)propanamido)-2-(tetrahydro-2H-pyran-4-yl)acetyl)-N-((5R,5′R)-5′-((S)-1-((S)-2-((S)-2-(methylamino)propanamido)-2-(tetrahydro-2H-pyran-4-yl)acetyl)pyrrolidine-2-carboxamido)-5,5′,6,6′,7,7′,8,8′-octahydro-[1,1′-binaphthalen]-5-yl)pyrrolidine-2-carboxamide] | 1 to 10 nM | 10 to 100 nM | 10 to 100 nM |
| CC[C@H](NC(=O)[C@H](C)NC)C(=O)N1CCC[C@H]1C(=O)N[C@@H]1CCOc2c(-c3cccc4c3OCC[C@H]4NC(=O)[C@@H]3CCCN3C(=O)[C@H](CC)NC(=O)[C@H](C)NC)cccc21 [Compound V-B, (2S)-1-[(2S)-2-[(2S)-2-(methylamino)propanamido]butanoyl]-N-[1(4R)-8-[(4R)-4-[(2S)-1-[(2S)-2-[(2S)-2-(methylamino)propanamido]butanoyl]pyrrolidine-2-amido]-3,4-dihydro-2H-1-benzopyran-8-yl]-3,4-dihydro-2H-1-benzopyran-4-yl]pyrrolidine-2-carboxamide] | 1 to 10 nM | 10 to 100 nM | 10 to 100 nM |
| CN[C@@H](C)C(=O)N[C@H](C(=O)N1C[C@@H](O)C[C@H]1C(=O)N[C@@H]1CCCc2c(OCCCCCOc3cccc4c3CCC[C@H]4NC(=O)[C@@H]3C[C@H](O)CN3C(=O)[C@@H](NC(=O)[C@H](C)NC)C3CCCCC3)cccc21)C1CCCCC1 [Compound I-B, (2S,4S)-1-((S)-2-cyclohexyl-2-((S)-2-(methylamino)propanamido)acetyl)-N—((R)-5-((5-(((R)-5-((2S,4S)-1-((S)-2-cyclohexyl-2-((S)-2-(methylamino)propanamido)acetyl)-4-hydroxypyrrolidine-2-carboxamido)-5,6,7,8-tetrahydronaphthalen-1-yl)oxy)pentyl)oxy)-1,2,3,4-tetrahydronaphthalen-1-yl)-4-hydroxypyrrolidine-2-carboxamide] | 1 to 10 nM | 100 to 1000 nM | 10 to 100 nM |
| CN[C@@H](C)C(=O)N[C@H](C(=O)N1CCC[C@H]1C(=O)N[C@@H]1CCOc2c(-c3cccc4c3OCC[C@H]4NC(=O)[C@@H]3CCCN3C(=O)[C@@H](NC(=O)[C@H](C)NC)C3CCOCC3)cccc21)C1CCOCC1 [Compound V-Q, (S)-1-((S)-2-((S)-2-(methylamino)propanamido)-2-(tetrahydro-2H-pyran-4-yl)acetyl)-N-((4R,4′R)-4′-((S)-1-((S)-2-((S)-2-(methylamino)propanamido)-2-(tetrahydro-2H-pyran-4-yl)acetyl)pyrrolidine-2-carboxamido)-[8,8′-bichroman]-4-yl)pyrrolidine-2-carboxamide] | 1 to 10 nM | 10 to 100 nM | 10 to 100 nM |
| CN[C@@H](C)C(=O)N[C@H](C(=O)N1CCC[C@H]1C(=O)N[C@@H]1CCCc2c(-c3cccc4c3CCC[C@H]4NC(=O)[C@@H]3CCCN3C(=O)[C@@H](NC(=O)[C@H](C)NC)C3CCCCC3)cccc21)C1CCCCC1 [Compound V-N, (2S)-1-[(2S)-2-cyclohexyl-2-[(2S)-2-(methylamino)propanamido]acetyl]-N-[(1R)-5-[(5R)-5-[(2S)-1-[(2S)-2-cyclohexyl-2-[(2S)-2-(methylamino)propanamido]acetyl]pyrolidine-2-amido]-5,6,7,8-tetrahydronaphthalen-1-yl]-1,2,3,4-tetrahydronaphthalen-1-yl]pyrrolidine-2-carboxamide] | 1 to 10 nM | 1 to 10 nM | 1 to 10 nM |
| CN[C@@H](C)C(=O)N[C@H](C(=O)N1CCC[C@H]1C(=O)N[C@@H]1CCCc2c(OCC#CCOc3cccc4c3CCC[C@H]4NC(=O)[C@@H]3CCCN3C(=O)[C@@H](NC(=O)[C@H](C)NC)C3CCCCC3)cccc21)C1CCCCC1 [Compound IV-B, (S)-1-((S)-2-Cyclohexyl-2-((S)-2-(methylamino)propanamido)acetyl)-N—((R)-5-(4-((R)-5-((S)-1-((S)-2-cyclohexyl-2-((S)-2-(methylamino)propanamido)acetyl)pyrrolidine-2-carboxamido)-5,6,7,8-tetrahydronaphthalen-1-yloxy)but-2-ynyloxy)-1,2,3,4-tetrahydronaphthalen-1-yl)pyrrolidine-2-carboxamide] | 1 to 10 nM | 10 to 100 nM | 10 to 100 nM |
